BindingDB's records for doi:10.1021/jm061414r (The Scripps Research Institute, 2007)

molecular target: T1, Carboxylic ester hydrolase (Homo sapiens, UniProt Q8TDZ9); assay: TGH Inhibition Assay
T1 sequence (Q8TDZ9 whole entry): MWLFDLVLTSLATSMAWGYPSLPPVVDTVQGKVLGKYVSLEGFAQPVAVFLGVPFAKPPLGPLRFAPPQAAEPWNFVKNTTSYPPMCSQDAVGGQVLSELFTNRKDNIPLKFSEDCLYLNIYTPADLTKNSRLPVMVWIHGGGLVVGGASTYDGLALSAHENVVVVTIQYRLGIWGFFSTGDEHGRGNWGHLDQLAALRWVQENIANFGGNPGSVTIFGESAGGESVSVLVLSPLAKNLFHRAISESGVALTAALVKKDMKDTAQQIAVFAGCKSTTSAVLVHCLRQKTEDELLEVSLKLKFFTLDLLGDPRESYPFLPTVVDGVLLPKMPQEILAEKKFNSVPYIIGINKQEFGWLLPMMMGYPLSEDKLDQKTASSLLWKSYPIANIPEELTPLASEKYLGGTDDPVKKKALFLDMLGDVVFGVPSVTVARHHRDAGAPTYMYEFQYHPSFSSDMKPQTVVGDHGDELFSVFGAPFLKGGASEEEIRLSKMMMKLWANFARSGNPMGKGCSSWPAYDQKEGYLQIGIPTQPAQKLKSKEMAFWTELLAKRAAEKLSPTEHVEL
Experimental: Inhibition of TGH activity was assayed using COS-7 expressed TGH and the chromogenic substrate. IC50 values were determined from the inhibition observed at 7 different inhibitor concentrations (three trials each).

| SMILES | IC50 [nM] |
| --- | --- |
| O=C(CCc1ccc(COc2ccccc2)cc1)c1ncc(-c2ccccn2)o1 | 2000 |
| O=C(CCc1ccc(OCc2ccccc2)cc1)c1ncc(-c2ccccn2)o1 [3-[4-(benzyloxy)phenyl]-1-[5-(pyridin-2-yl)-1,3-oxazol-2-yl]propan-1-one] | 8000 |
| O=C(CCCCCCc1cccc(Cl)c1Cl)c1ncc(-c2ccccn2)o1 [7-(2,3-dichlorophenyl)-1-[5-(pyridin-2-yl)-1,3-oxazol-2-yl]heptan-1-one] | 500 |
